According to PubChem BioAssay AID286 (DTP/NCI, 2004):
Several values for one entry are separate records, joined by “and”; a condition that tells them apart may be missing. Identical values can stand only once. Toxic doses and inconclusive results are not listed. How the source made its calls: active means survival T/C of 150% or more; inactive means T/C below 125% in these data. Starred links: 1 amine or outer side, 2 acyl side, 3 side chain; linkers in the order of their positions; H or OH if unused. Positions of bridges follow the written chain, without caps; N, C: chain ends. Non-standard residues stand in square brackets, D forms with d. Residues, ends and D or L forms follow the SMILES beside them. Chains are numbered I, II in the order given. Actinocin(9to1) = Cc1c2oc3c(C)ccc(C(=O)[*:1])c3nc-2c(C(=O)[*:2])c(N)c1=O; aThr = C[C@H](O)[C@H](N)C(=O)O; NMeV = CN[C@H](C(=O)O)C(C)C; Sar = CNCC(=O)O

System: BDF1 mice, M5076 sarcoma ip, median survival T/C
Test: NCI In Vivo Anticancer Drug Screen. Data for tumor model Sarcoma M5076 (intraperitoneal) in B6D2F1 (BDF1) mice
Conditions: endpoint: median survival time, higher = longer survival
Experimental: The antitumor activity of compounds was measured in mice bearing transplantable tumors. Survival or tumor size were measured and the results are expressed as the measurement made in the treated group (T) divided by the measurement made in the vehicle treated control group (C). The tumor model used in this assay is Sarcoma M5076 (intraperitoneal) in B6D2F1 (BDF1) mice

[1] = dose: 0.5 mg/kg/injection, schedule: Q01DX009 (ip), vehicle: saline + alcohol
[2] = dose: 1.0 mg/kg/injection, schedule: Q01DX009 (ip), vehicle: saline + alcohol
[3] = dose: 5.0 mg/kg/injection, schedule: Q01DX009 (ip), vehicle: saline + alcohol
[4] = dose: 50.0 mg/kg/injection, schedule: Q04DX004 (ip), vehicle: saline with Tween-80
[5] = dose: 100.0 mg/kg/injection, schedule: Q04DX004 (ip), vehicle: saline with Tween-80
[6] = dose: 200.0 mg/kg/injection, schedule: Q04DX004 (ip), vehicle: saline with Tween-80
[7] = dose: 400.0 mg/kg/injection, schedule: Q04DX004 (ip), vehicle: saline with Tween-80

Measured: T/C

NC1=NC(O)C=C1 (stereo not drawn)
active: dose: 20.0 mg/kg/injection, schedule: Q01DX009 (ip), vehicle: saline 152 % of control | dose: 25.0 mg/kg/injection, schedule: Q01DX009 (ip), vehicle: saline 160 % of control | dose: 40.0 mg/kg/injection, schedule: Q01DX009 (ip), vehicle: saline 152 % of control | dose: 50.0 mg/kg/injection, schedule: Q01DX009 (ip), vehicle: saline 178 % of control
inactive: dose: 3.12 mg/kg/injection, schedule: Q01DX009 (ip), vehicle: saline 118 % of control

CCOC(=O)C(N)CSC(=O)NC (stereo not drawn)
active: dose: 600.0 mg/kg/injection, schedule: Q04DX004 (ip), vehicle: saline 178 % of control
inactive: dose: 75.0 mg/kg/injection, schedule: Q04DX004 (ip), vehicle: saline 103 % of control | dose: 150.0 mg/kg/injection, schedule: Q04DX004 (ip), vehicle: saline 109 % of control | dose: 300.0 mg/kg/injection, schedule: Q04DX004 (ip), vehicle: saline 110 % of control

Cc1c2ccccc2c(C)c2c1cc(C(=O)O)c1ccccc12
inactive: dose: 25.0 mg/kg/injection, schedule: Q04DX004 (ip), vehicle: sodium bicarbonate 109 % of control | dose: 100.0 mg/kg/injection, schedule: Q04DX004 (ip), vehicle: sodium bicarbonate 110 % of control | dose: 200.0 mg/kg/injection, schedule: Q04DX004 (ip), vehicle: sodium bicarbonate 116 % of control | dose: 400.0 mg/kg/injection, schedule: Q04DX004 (ip), vehicle: sodium bicarbonate 110 % of control

COC1=C(C)C(=O)C2=C(C1=O)C(CO)N1C(C#N)C3CC4C(C1C2N1CCOC41)N3C (stereo not drawn)
inactive: dose: 0.06 mg/kg/injection, schedule: Q01DX009 (ip), vehicle: saline + alcohol 116 % of control | dose: 0.13 mg/kg/injection, schedule: Q01DX009 (ip), vehicle: saline + alcohol 95 % of control | dose: 0.25 mg/kg/injection, schedule: Q01DX009 (ip), vehicle: saline + alcohol 98 % of control | [1] 103 % of control | [2] 122 % of control | dose: 62.5 micrograms/kg/injection, schedule: Q01DX009 (ip), vehicle: acid diluted with saline 107 % of control | dose: 125.0 micrograms/kg/injection, schedule: Q01DX009 (ip), vehicle: acid diluted with saline 96 % of control | dose: 250.0 micrograms/kg/injection, schedule: Q01DX009 (ip), vehicle: acid diluted with saline 96 % of control | dose: 500.0 micrograms/kg/injection, schedule: Q01DX009 (ip), vehicle: acid diluted with saline 109 % of control

CC(=O)OCc1cc(=O)n(C)c2c3c4c(cc12)c(C)cc(=O)n4CO3
active: dose: 20.0 mg/kg/injection, schedule: Q01DX009 (ip), vehicle: Klucel (hydroxypropylcellulose) (HPC) 165 % of control | dose: 40.0 mg/kg/injection, schedule: Q01DX009 (ip), vehicle: Klucel (hydroxypropylcellulose) (HPC) 179 % of control
inactive: dose: 4.0 mg/kg/injection, schedule: Q01DX009 (ip), vehicle: Klucel (hydroxypropylcellulose) (HPC) 102 % of control | dose: 5.0 mg/kg/injection, schedule: Q04DX005 (ip), vehicle: Klucel (hydroxypropylcellulose) (HPC) 102 % of control | dose: 8.0 mg/kg/injection, schedule: Q01DX009 (ip), vehicle: Klucel (hydroxypropylcellulose) (HPC) 100 % of control | dose: 10.0 mg/kg/injection, schedule: Q04DX005 (ip), vehicle: Klucel (hydroxypropylcellulose) (HPC) 100 % of control | dose: 16.0 mg/kg/injection, schedule: Q01DX009 (ip), vehicle: Klucel (hydroxypropylcellulose) (HPC) 99 % of control | dose: 20.0 mg/kg/injection, schedule: Q04DX005 (ip), vehicle: Klucel (hydroxypropylcellulose) (HPC) 116 % of control and 118 % of control | dose: 32.0 mg/kg/injection, schedule: Q01DX009 (ip), vehicle: Klucel (hydroxypropylcellulose) (HPC) 99 % of control | dose: 40.0 mg/kg/injection, schedule: Q04DX005 (ip), vehicle: Klucel (hydroxypropylcellulose) (HPC) 102 % of control | dose: 64.0 mg/kg/injection, schedule: Q01DX009 (ip), vehicle: Klucel (hydroxypropylcellulose) (HPC) 103 % of control | dose: 80.0 mg/kg/injection, schedule: Q04DX005 (ip), vehicle: Klucel (hydroxypropylcellulose) (HPC) 92 % of control and 95 % of control

Cc1c2oc3c(C)ccc(C(=O)N[C@@H]4C(=O)N[C@H](C(C)C)C(=O)N5CCC[C@H]5C(=O)N(C)CC(=O)N(C)[C@@H](C(C)C)C(=O)O[C@H]4C)c3nc-2c(C(=O)N[C@@H]2C(=O)N[C@H](C(C)C)C(=O)N3CCC[C@H]3C(=O)N(C)CC(=O)N(C)[C@@H](C(C)C)C(=O)O[C@H]2C)c(N)c1=O (I: [aThr][dV]P[Sar][NMeV] / II: [aThr][dV]P[Sar][NMeV]; ester I:1-I:C, II:1-II:C; linker I:N-II:N via Actinocin(9to1))
active: dose: 0.1 mg/kg/injection, schedule: Q04DX004 (ip), vehicle: saline + alcohol 165 % of control | dose: 0.2 mg/kg/injection, schedule: Q04DX004 (ip), vehicle: saline + alcohol 178 % of control

S=c1nc[nH]c2nc[nH]c12
inactive: dose: 20.0 mg/kg/injection, schedule: Q04DX005 (ip), vehicle: alkali diluted with saline 96 % of control | dose: 80.0 mg/kg/injection, schedule: Q04DX005 (ip), vehicle: alkali diluted with saline 120 % of control

O=C(O)C1(C(=O)O)CCC1.[NH2-].[NH2-].[Pt+2]
active: dose: 15.6 mg/kg/injection, schedule: Q04DX005 (ip), vehicle: water 186 % of control | dose: 25.92 mg/kg/injection, schedule: Q04DX005 (ip), vehicle: water 182 % of control | dose: 43.2 mg/kg/injection, schedule: Q04DX005 (ip), vehicle: water 194 % of control | dose: 72.0 mg/kg/injection, schedule: Q04DX005 (ip), vehicle: water 220 % of control | dose: 120.0 mg/kg/injection, schedule: Q04DX005 (ip), vehicle: water 275 % of control

C=C1C(=O)OC2C1C(OC(=O)/C(C)=C\C)CC(C)=C1C(=O)C3OC3(C)C12O (stereo not drawn)
inactive: dose: 1.25 mg/kg/injection, schedule: Q01DX009 (ip), vehicle: saline + alcohol 97 % of control | dose: 2.5 mg/kg/injection, schedule: Q01DX009 (ip), vehicle: saline + alcohol 105 % of control | [3] 105 % of control and 121 % of control | dose: 20.0 mg/kg/injection, schedule: Q01DX009 (ip), vehicle: saline + alcohol 117 % of control

Nc1nc2c(c(=O)[nH]1)N(C=O)C(CNc1ccc(C(=O)N[C@@H](CCC(=O)O)C(=O)O)cc1)CN2 (stereo partly drawn)
inactive: dose: 50.0 mg/kg/injection, schedule: Q01DX009 (ip), vehicle: sodium bicarbonate 96 % of control | dose: 100.0 mg/kg/injection, schedule: Q01DX009 (ip), vehicle: sodium bicarbonate 86 % of control | dose: 200.0 mg/kg/injection, schedule: Q01DX009 (ip), vehicle: sodium bicarbonate 94 % of control

Nc1ccn(C2OC(CO)C(O)C2O)c(=O)n1 (stereo not drawn)
active: dose: 125.0 mg/kg/injection, schedule: Q04DX005 (ip), vehicle: saline 164 % of control | dose: 250.0 mg/kg/injection, schedule: Q04DX005 (ip), vehicle: saline 184 % of control | dose: 500.0 mg/kg/injection, schedule: Q04DX005 (ip), vehicle: saline 185 % of control | dose: 1000.0 mg/kg/injection, schedule: Q04DX005 (ip), vehicle: saline 199 % of control

OC(CBr)C(O)C(O)C(O)CBr (stereo not drawn)
inactive: [4] 111 % of control | [5] 114 % of control | dose: 108.0 mg/kg/injection, schedule: Q04DX005 (ip), vehicle: saline with Tween-80 122 % of control | [6] 114 % of control | [7] 114 % of control | dose: 800.0 mg/kg/injection, schedule: Q04DX004 (ip), vehicle: saline with Tween-80 108 % of control
active: dose: 500.0 mg/kg/injection, schedule: Q04DX005 (ip), vehicle: saline with Tween-80 176 % of control | dose: 833.0 mg/kg/injection, schedule: Q04DX005 (ip), vehicle: saline with Tween-80 176 % of control

C=C1C(=O)O[C@H]2C1[C@H](OC(=O)/C(C)=C\C)CC(=C)[C@@H]1C(=O)[C@H]3O[C@@]3(C)[C@@]12O (stereo partly drawn)
inactive: [1] 107 % of control | [2] 102 % of control | dose: 2.0 mg/kg/injection, schedule: Q01DX009 (ip), vehicle: saline + alcohol 104 % of control | [3] 113 % of control

Cc1ccc2c(c1)n([O-])c1cc(Cl)ccc1[n+]2=O
inactive: dose: 25.0 mg/kg/injection, schedule: Q04DX004 (ip), vehicle: saline with Tween-80 109 % of control | [4] 112 % of control | [5] 110 % of control | [6] 110 % of control | [7] 115 % of control

O=C1c2ccccc2C(=O)c2c(NCCNCCO)ccc(NCCNCCO)c21
active: dose: 5.0 mg/kg/injection, schedule: Q04DX005 (ip), vehicle: saline 277 % of control | dose: 10.0 mg/kg/injection, schedule: Q04DX005 (ip), vehicle: saline 357 % of control
